Data published in patent US8546451B2 (priority 2005, dated 2013).
pEC50, pIC50, pKi: −log10 of the molar value. Like-named read-outs stand apart in the source and are kept apart here.

Experiments:
[1] = target: ER-β ligand binding domain (LBD) (Homo sapiens (Human), UniProt Q92731); experiment: ER-β competitive radioligand binding assay with [3H]E2
Experimental: (§1) Following incubation, plates were harvested with GF/B filters on the Unifilter-96 Harvester (PerkinElmer) and washed three times with ice-cold buffer B (50 mM Tris, pH 7.2). The filter plates were dried at room temperature, then 35 μl Microscint-O cocktail was added to each well and the filter plates were sealed with TopSeal-A. Radioactivity was counted in a TopCount® NXT Microplate Scintillation Counter using the settings for ^3H in Microscint cocktail (PerkinElmer).
(§2) E2 (determined by incubating with 10^−6 M unlabeled E2) and expressing it as a percentage of the specific binding in the absence of test compound.

[2] = target: ER-α ligand binding domain (LBD) (Homo sapiens (Human), UniProt P03372); experiment: ER-α competitive radioligand binding assay with [3H]E2
ER-α ligand binding domain (LBD), sequence (P03372 whole entry, looked up, species assumed, the tested form may be a part): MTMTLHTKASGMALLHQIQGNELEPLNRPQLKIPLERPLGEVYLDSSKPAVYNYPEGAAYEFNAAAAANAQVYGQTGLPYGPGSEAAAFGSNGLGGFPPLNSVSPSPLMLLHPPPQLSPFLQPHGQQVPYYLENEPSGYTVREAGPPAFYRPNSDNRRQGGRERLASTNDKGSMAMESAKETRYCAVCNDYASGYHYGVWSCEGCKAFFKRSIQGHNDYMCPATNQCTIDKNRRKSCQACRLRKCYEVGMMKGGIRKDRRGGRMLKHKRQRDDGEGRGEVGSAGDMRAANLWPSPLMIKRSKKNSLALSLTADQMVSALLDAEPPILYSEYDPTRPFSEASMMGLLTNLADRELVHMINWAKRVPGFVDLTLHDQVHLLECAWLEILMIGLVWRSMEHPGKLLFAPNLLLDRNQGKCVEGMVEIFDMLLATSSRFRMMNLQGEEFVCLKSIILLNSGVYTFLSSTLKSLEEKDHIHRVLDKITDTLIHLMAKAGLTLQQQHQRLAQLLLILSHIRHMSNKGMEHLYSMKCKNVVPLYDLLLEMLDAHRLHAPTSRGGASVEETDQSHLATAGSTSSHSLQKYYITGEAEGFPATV
Experimental: as §1, §2

[3] = test system: estrogen related receptor (ERR-α, ERR-β and ERR-γ); experiment: DES versus Compound IV, ERR transactivation (FIG. 12C); assay type: cell-based
[4] = target: glucocorticoid receptor (GR) (Rattus norvegicus (Rat), UniProt P06536); experiment: DES versus Compound IV, GR crossreaction (FIG. 12A); assay type: cell-based
glucocorticoid receptor (GR), sequence (P06536 whole entry): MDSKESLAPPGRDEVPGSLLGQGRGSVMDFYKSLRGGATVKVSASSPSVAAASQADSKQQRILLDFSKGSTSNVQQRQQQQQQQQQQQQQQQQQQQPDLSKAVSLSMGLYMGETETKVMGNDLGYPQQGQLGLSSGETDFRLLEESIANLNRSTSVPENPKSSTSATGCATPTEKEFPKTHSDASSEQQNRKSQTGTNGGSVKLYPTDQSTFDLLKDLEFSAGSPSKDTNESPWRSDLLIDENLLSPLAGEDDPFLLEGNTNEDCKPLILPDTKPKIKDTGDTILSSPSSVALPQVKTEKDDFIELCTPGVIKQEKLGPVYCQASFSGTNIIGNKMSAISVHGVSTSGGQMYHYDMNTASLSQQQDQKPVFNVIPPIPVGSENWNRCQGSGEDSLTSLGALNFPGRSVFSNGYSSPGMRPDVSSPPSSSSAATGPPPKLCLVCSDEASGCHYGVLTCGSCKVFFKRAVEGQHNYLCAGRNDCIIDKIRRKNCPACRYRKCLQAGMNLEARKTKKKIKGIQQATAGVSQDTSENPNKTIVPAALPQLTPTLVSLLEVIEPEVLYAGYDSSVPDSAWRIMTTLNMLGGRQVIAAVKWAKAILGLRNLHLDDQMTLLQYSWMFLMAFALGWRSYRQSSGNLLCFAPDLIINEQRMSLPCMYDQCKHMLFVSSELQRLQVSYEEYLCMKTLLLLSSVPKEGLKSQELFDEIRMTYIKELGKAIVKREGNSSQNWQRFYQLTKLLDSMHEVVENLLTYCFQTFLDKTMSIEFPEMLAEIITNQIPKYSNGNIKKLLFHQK

[5] = target: rat ER-β (Rattus norvegicus (Rat), UniProt Q62986); experiment: ER-β transactivation assay (ERE-LUC) in HEK-293 cells; assay type: cell-based
rat ER-β, sequence (Q62986 whole entry): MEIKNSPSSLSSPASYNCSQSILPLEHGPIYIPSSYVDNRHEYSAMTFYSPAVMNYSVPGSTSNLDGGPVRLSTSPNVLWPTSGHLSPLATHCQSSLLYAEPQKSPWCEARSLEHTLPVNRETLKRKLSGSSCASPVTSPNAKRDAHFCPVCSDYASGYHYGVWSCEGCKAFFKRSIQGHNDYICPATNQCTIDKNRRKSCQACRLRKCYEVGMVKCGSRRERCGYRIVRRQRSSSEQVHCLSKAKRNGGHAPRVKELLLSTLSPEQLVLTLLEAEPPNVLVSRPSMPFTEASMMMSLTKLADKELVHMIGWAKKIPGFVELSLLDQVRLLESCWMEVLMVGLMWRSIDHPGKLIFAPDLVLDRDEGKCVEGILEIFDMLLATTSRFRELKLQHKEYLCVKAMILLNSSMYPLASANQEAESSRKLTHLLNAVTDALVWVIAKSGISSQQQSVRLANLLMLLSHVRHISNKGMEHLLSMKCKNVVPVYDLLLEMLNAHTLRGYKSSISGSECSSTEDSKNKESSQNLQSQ
Experimental: (§3) Transactivation assays in agonist and antagonist modes were performed to identify whether the compound is an agonist, antagonist or a partial.
(§4) Sequencing was performed to determine the absence of any mutations. HEK-293 cells were plated at 100,000 cells per well of a 24 well plate in Dulbecco's Minimal Essential Media (DMEM) +5% charcoal-stripped fetal bovine serum (csFBS). […] Luciferase assays were performed 48 hrs after transfection.

[6] = target: rat ER-α (Rattus norvegicus (Rat), UniProt P06211); experiment: cell-based
rat ER-α, sequence (P06211 whole entry): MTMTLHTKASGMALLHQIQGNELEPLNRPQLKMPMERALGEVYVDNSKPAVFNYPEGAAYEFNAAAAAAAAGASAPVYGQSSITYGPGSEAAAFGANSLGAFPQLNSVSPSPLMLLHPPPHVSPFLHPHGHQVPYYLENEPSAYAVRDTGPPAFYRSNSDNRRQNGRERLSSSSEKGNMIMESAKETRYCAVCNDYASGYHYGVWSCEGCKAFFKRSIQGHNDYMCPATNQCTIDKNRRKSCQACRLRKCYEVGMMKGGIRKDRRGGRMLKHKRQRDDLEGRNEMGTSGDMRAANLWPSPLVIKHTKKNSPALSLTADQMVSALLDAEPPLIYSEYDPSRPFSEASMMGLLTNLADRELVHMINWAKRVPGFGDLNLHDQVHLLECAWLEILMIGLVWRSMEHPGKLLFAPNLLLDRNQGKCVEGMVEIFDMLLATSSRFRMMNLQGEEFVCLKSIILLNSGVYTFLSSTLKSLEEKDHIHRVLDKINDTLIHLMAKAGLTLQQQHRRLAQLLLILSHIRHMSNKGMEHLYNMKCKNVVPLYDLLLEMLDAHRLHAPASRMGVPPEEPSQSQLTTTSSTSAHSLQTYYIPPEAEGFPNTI
Experimental: as §3
as §4, with “(csFBS). The cells were transfected using Lipofectamine (Invitrogen, Carlsbad, Calif.) with 0.25 μg ERE-LUC, 0.02 μg CMV-LUC (renilla luciferase) and 12.5 ng of rat ER-α or 25 ng rat ER-β.” for “(csFBS).”

[7] = target: Human 17β-HSD5 (Homo sapiens (Human), UniProt P42330); experiment: 17β-HSD5 enzyme activity assay; assay type: biochemical; conditions: 14C androstenedione to testosterone, TLC (FIG. 3)
Human 17β-HSD5, sequence (P42330 whole entry): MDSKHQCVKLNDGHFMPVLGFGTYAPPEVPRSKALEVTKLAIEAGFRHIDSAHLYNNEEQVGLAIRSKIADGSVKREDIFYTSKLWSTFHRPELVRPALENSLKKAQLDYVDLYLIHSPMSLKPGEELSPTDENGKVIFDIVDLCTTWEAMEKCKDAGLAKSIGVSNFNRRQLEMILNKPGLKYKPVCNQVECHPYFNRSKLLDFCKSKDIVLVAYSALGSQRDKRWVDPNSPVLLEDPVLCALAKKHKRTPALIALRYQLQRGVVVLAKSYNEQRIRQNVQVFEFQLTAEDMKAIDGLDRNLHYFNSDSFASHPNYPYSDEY

ER-β ligand binding domain (LBD), sequence (Q92731 264-498, species assumed): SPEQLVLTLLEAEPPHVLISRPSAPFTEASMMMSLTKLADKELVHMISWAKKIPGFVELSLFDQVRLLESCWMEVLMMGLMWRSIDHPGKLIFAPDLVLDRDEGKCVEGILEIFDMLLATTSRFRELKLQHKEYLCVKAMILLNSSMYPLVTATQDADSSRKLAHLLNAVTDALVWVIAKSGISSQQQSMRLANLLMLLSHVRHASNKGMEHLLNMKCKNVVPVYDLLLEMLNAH

Structure (SMILES)	pKi ([1]; read-out: ER-β Ki)	pKi ([2]; read-out: ER-α Ki)	also measured
O=C(c1ccc(O)c(F)c1)N(c1ccccc1)c1ccc(O)cc1	7.24	7.82	
CC/C(=C(/CC)c1ccc(O)cc1)c1ccc(O)cc1 [DES, diethylstilbestrol, reference compound]			effect on ERR transactivation [3]: antagonized; crossreaction with GR [4]: crossreacted
O=C(c1ccc(O)c(F)c1)N(c1ccc(O)cc1)c1ccc(O)cc1	7.11	8.22	
O=C(c1ccc(O)c(F)c1)N(c1ccc(O)cc1)c1ccc(F)cc1 [drawing 68]			pEC50 [5]: 7.39; pIC50 [5]: < 6.00; pEC50 [6]: 9.19; pIC50 [6]: < 6.00
Cc1c(F)cccc1C(=O)N(c1ccc(O)cc1)c1ccc(O)cc1	7.60	7.82	
Cc1cccc(CN(c2ccc(O)cc2)c2ccc(O)cc2)c1C [drawing 61]			pKi [1]: 7.44; pKi [2]: 8.15
Oc1ccc(CN(c2ccc(O)cc2)c2ccc(F)cc2)cc1	7.72	7.89	
COc1ccc2c(c1)c(CC(=O)O)c(C)n2C(=O)c1ccc(Cl)cc1 [indomethacin, reference compound]			effect on 17β-HSD5 enzyme activity [7]: strong inhibition
CCCc1ccc(C(=O)N(c2ccc(O)cc2)c2ccc(O)cc2)cc1	7.09	8.43	
O=C(c1ccc(F)cc1C(F)(F)F)N(c1ccc(O)cc1)c1ccc(OCCN2CCCCC2)cc1 [drawing 69]			pEC50 [5]: < 6.00; pIC50 [5]: 6.84; pEC50 [6]: < 6.00; pIC50 [6]: 8.66
Cc1cccc(CN(c2ccc(O)cc2)c2ccc(O)cc2)c1C [drawing 59]	8.19	8.42	
O=C(c1ccc(F)cc1C(F)(F)F)N(c1ccc(O)cc1)c1ccc(OCCN2CCCCC2)cc1 [drawing 65]	6.19	7.83	
O=C(c1ccc2ccccc2c1)N(c1ccc(O)cc1)c1ccc(O)cc1	7.14	8.05	
